Data published in PubChem BioAssay (NCI).
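The concentration for 50% growth inhibition is given as GI50. TGI: total growth inhibition.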

Experiments:
Assay in all cases: inhibition of tumour cell growth, NCI panel, 384-well format
[1] = test system: CCRF-CEM leukemia
[2] = test system: SNB-19 CNS
[3] = test system: MDA-MB-435 melanoma
[4] = test system: MDA-MB-468 breast
[5] = test system: LOX IMVI melanoma
[6] = test system: SNB-75 CNS
[7] = test system: SF-295 CNS
[8] = test system: UO-31 renal
[9] = test system: HS 578T breast
[10] = test system: SW-620 colon
[11] = test system: NCI-H23 lung
[12] = test system: BT-549 breast
[13] = test system: SK-MEL-28 melanoma
[14] = test system: HCC-2998 colon
[15] = test system: NCI-H460 NSCLC
[16] = test system: RPMI-8226 leukemia
[17] = test system: IGROV1 ovarian
[18] = test system: NCI/ADR-RES ovarian
[19] = test system: OVCAR-8 ovarian
[20] = test system: HL-60(TB) leukemia
[21] = test system: PC-3 prostate
[22] = test system: RXF 393 renal
[23] = test system: SK-MEL-5 melanoma
[24] = test system: A498 renal
[25] = test system: DU-145 prostate
[26] = test system: K-562 leukemia
[27] = test system: ACHN renal
[28] = test system: EKVX NSCLC
[29] = test system: U251 glioblastoma
[30] = test system: HCT-116 colon
[31] = test system: NCI-H322M lung
[32] = test system: A549 NSCLC
[33] = test system: UACC-257 melanoma
[34] = test system: HCT-15 colon
[35] = test system: NCI-H226 lung
[36] = test system: OVCAR-3 ovarian
[37] = test system: SR leukemia
[38] = test system: HOP-62 NSCLC
[39] = test system: MCF7 breast
[40] = test system: TK-10 renal
[41] = test system: T-47D breast
[42] = test system: M14 melanoma
[43] = test system: OVCAR-4 ovarian
[44] = test system: SK-OV-3 ovarian
[45] = test system: HT29 colon
[46] = test system: MDA-MB-231 breast
[47] = test system: KM12 colon
[48] = test system: MALME-3M melanoma
[49] = test system: SF-268 CNS
[50] = test system: SF-539 CNS
[51] = test system: CAKI-1 renal
[52] = test system: COLO 205 colon
[53] = test system: 786-0 renal
[54] = test system: NCI-H522 lung
[55] = test system: UACC-62 melanoma
[56] = test system: HOP-92 NSCLC
[57] = test system: MOLT-4 leukemia
[58] = test system: SN12C renal

With `CNCCN(C)Cc1cn[nH]c1-c1ccc(OC2CC(OCCC3CCOCC3)C2)cc1` (stereo unspecified) the GI50 [1] was 53.8 µM, the TGI [1] was greater than 100 µM and the GI50 [2] was greater than 100 µM. The TGI [2] was greater than 100 µM, the GI50 [3] was greater than 100 µM and the TGI [3] was greater than 100 µM. It also gave a GI50 [4] of 45.5 µM, a TGI [4] greater than 100 µM and a GI50 [5] of 32.6 µM. It also gave a TGI [5] greater than 100 µM, a GI50 [6] greater than 100 µM and a TGI [6] greater than 100 µM. It also gave a GI50 [7] of 64.5 µM, a TGI [7] greater than 100 µM and a GI50 [8] of 80.2 µM. It also gave a TGI [8] greater than 100 µM, a GI50 [9] greater than 100 µM and a TGI [9] greater than 100 µM. The GI50 [10] was greater than 100 µM, the TGI [10] was greater than 100 µM and the GI50 [11] was 40 µM. It also gave a TGI [11] greater than 100 µM, a GI50 [12] of 61.4 µM and a TGI [12] greater than 100 µM. For the same compound, the GI50 [13] was 43 µM, the TGI [13] was greater than 100 µM and the GI50 [14] was 50.7 µM. For the same compound, the TGI [14] was greater than 100 µM, the GI50 [15] was 43.8 µM and the TGI [15] was greater than 100 µM. It also gave a GI50 [16] of 24.5 µM, a TGI [16] greater than 100 µM and a GI50 [17] of 37.1 µM. The TGI [17] was greater than 100 µM, the GI50 [18] was greater than 100 µM and the TGI [18] was greater than 100 µM. The GI50 [19] was greater than 100 µM, the TGI [19] was greater than 100 µM and the GI50 [20] was 3.26 µM. For the same compound, the TGI [20] was 12.4 µM, the GI50 [21] was 75.4 µM and the TGI [21] was greater than 100 µM. The GI50 [22] was 69.8 µM, the TGI [22] was greater than 100 µM and the GI50 [23] was 16.1 µM. For the same compound, the TGI [23] was greater than 100 µM, the GI50 [24] was 48.9 µM and the TGI [24] was greater than 100 µM. For the same compound, the GI50 [25] was greater than 100 µM, the TGI [25] was greater than 100 µM and the GI50 [26] was 9.91 µM. It also gave a TGI [26] of 25 µM, a GI50 [27] of 70.9 µM and a TGI [27] greater than 100 µM. The GI50 [28] was 60.6 µM, the TGI [28] was greater than 100 µM and the GI50 [29] was 51.8 µM. The TGI [29] was greater than 100 µM, the GI50 [30] was 36.6 µM and the TGI [30] was greater than 100 µM. For the same compound, the GI50 [31] was greater than 100 µM, the TGI [31] was greater than 100 µM and the GI50 [32] was 79.6 µM. For the same compound, the TGI [32] was greater than 100 µM, the GI50 [33] was 18.9 µM and the TGI [33] was 43.3 µM. It also gave a GI50 [34] greater than 100 µM, a TGI [34] greater than 100 µM and a GI50 [35] greater than 100 µM. It also gave a TGI [35] greater than 100 µM, a GI50 [36] of 24 µM and a TGI [36] greater than 100 µM. The GI50 [37] was 7.14 µM, the TGI [37] was 15 µM and the GI50 [38] was 58.3 µM. The TGI [38] was greater than 100 µM, the GI50 [39] was 51.5 µM and the TGI [39] was greater than 100 µM. It also gave a GI50 [40] of 84.5 µM, a TGI [40] greater than 100 µM and a GI50 [41] of 71.2 µM. It also gave a TGI [41] greater than 100 µM, a GI50 [42] greater than 100 µM and a TGI [42] greater than 100 µM. For the same compound, the GI50 [43] was greater than 100 µM, the TGI [43] was greater than 100 µM and the GI50 [44] was greater than 100 µM. The TGI [44] was greater than 100 µM, the GI50 [45] was 24.6 µM and the TGI [45] was 71.5 µM. For the same compound, the GI50 [46] was 78.8 µM, the TGI [46] was greater than 100 µM and the GI50 [47] was greater than 100 µM. It also gave a TGI [47] greater than 100 µM, a GI50 [48] of 13.6 µM and a TGI [48] of 56.2 µM. The GI50 [49] was 83.6 µM, the TGI [49] was greater than 100 µM and the GI50 [50] was 94.4 µM. It also gave a TGI [50] greater than 100 µM, a GI50 [51] of 41.2 µM and a TGI [51] greater than 100 µM. The GI50 [52] was 96.4 µM, the TGI [52] was greater than 100 µM and the GI50 [53] was 41.4 µM. For the same compound, the TGI [53] was greater than 100 µM, the GI50 [54] was greater than 100 µM and the TGI [54] was greater than 100 µM. For the same compound, the GI50 [55] was 22 µM, the TGI [55] was 66.6 µM and the GI50 [56] was 42.5 µM. For the same compound, the TGI [56] was greater than 100 µM, the GI50 [57] was 36.8 µM and the TGI [57] was greater than 100 µM. For the same compound, the GI50 [58] was 89.2 µM and the TGI [58] was greater than 100 µM.
